“And” between values parts separate entries of the source, which are not always exact repeats. Equal values may be shown once.
Molecular target: T1, leukotriene receptor (guinea pig lung membranes) (Cavia porcellus, UniProt Q2NNR5)
T1 construct: 20 mg original tissue wet weight of guinea pig lung; tissue Kuiper Rabbit Farm, Gary, IN (animals); host or cells: guinea pig lung, crude membranes
T1 sequence (Q2NNR5 1-340): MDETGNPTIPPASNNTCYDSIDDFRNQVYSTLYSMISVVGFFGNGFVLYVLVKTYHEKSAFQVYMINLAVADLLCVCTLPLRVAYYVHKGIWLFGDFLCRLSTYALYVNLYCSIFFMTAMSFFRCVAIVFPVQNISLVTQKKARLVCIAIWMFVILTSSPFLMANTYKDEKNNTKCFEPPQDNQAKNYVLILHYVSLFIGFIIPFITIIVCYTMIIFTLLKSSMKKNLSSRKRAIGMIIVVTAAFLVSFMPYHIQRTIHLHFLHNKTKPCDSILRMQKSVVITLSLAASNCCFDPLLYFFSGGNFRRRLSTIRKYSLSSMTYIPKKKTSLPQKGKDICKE
Test: Binding of ^3 H-Leukotriene D4 to Guinea Pig Lung Membranes (RBL)
Conditions: 0.2 nM ^3 H-LTD4, 60 min, 25° C.; read-out: Concentration (M) for 50.0 % Inhibition, IC (RBL)
Description: Additionally, the activity, of the compounds having the Formula I of the present invention is determined by the well known leukotriene receptor binding assay that is described by R. F. Bruns, W. J. Thomsen and T. A. Pugsley in Life Sciences, 33, 645 (1983) or the Herxheimer in vivo antiallergy test described in H. Herxheimer, J. Physiol. (London), Vol. 177, p. 251 (1952).
Binding of ^3 H-Leukotriene D4 to Guinea Pig Lung Membranes (RBL)
[14,15-^3 H]leukotriene D4 (^3 H-LTD4) (25 Ci/mmol and 40 Ci/mmol) is purchased from New England Nuclear. Unlabeled LTC4 is a gift of Ono Pharmaceuticals (Japan). LTC4, LTD4, and LTE4 are purchased as methyl esters from Paesel GmbH (Frankfurt, W. Germany). Concentrations of the Paesel leukotrienes are calculated from their absorbance at 280 nm. Leukotriene esters are saponified overnight under N2 in 3.3% potassium carbonate at room temperature. Tritiated leukotrienes are stored as received from New England Nuclear at -20° C. Ono LTC4 (5 μg/ml) is stored at -60° C. in phosphate buffer pH 6.8. Saponified Paesel leukotrienes are stored at -60° C. in 3.3% potassium carbonate (pH 9.0-9.5). Aliquots of leukotrienes are taken from stock solutions immediately after thawing, after which the stock solutions are immediately refrozen. 2-Amino-2-(hydroxymethyl)-1,3-propanediol (Tris) is Sigma pH 7.7 pre-set crystals, and dimethylsulfoxide is Aldrich Gold Label.
Preparation of crude lung membranes
Two pairs of lungs (1.3 g) from freshly sacrificed 300 g male guinea pigs (older animals gave substantially lower binding) from Kuiper Rabbit Farm, Gary, IN are disrupted with a Polytron PT 10 (setting 4) for 30 seconds in 20 ml ice-cold 50 mM Tris adjusted with HCl to pH 7.7 at 25° C. (Tris buffer), filtered through a single layer of gauze to remove connective tissue, and centrifuged at 50,000 xg for ten min. The pellet is resuspended by homogenization with a Polytron in 20 ml Tris buffer, centrifuged at 50,000 xg for ten min., resuspended, incubated at 37° C. for 30 minutes, and centrifuged again. The final pellet is resuspended in Tris buffer and either used fresh or stored at -70° C.
All incubations are in triplicate for 60 minutes at 25° C. in 12×75 mm polystyrene tubes containing 1 ml Tris buffer with 20 mg original tissue wet weight of guinea pig lung nmembranes, 0.2 nM ^3 H-LTD4 (6,000-11,000 cpm), 10 mM MgCl2, and 1% dimethylsulfoxide Leukotrienes are diluted in Tris buffer. All other test compounds dissolved at 10 mM in dimethylsulfoxide on the same day as the experiment, and diluted in dimethylsulfoxide to 100× the final incubation concentration. Control incubations receive an equal volume (10 μl) of dimethylsulfoxide; the resulting concentration of dimethylsulfoxide had no effect on binding. ^3 H-LTD4 is diluted to 2 nM in Tris buffer. The membrane suspension (20 mg/0.89 ml) contains sufficient MgCl2 to give 10 mM final concentration in the incubation. […] All additions are performed at 0° C. Immediately after the last addition, the incubation is initiated by agitating the rack of tubes on a vortex mixer and warming to 25° C. in a water bath. Tubes are vortexed at least once more during the incubation to ensure that the membranes remained suspended. Incubations are terminated after 60 minutes by filtering under reduced pressure through 25 mm Whatman GF/B filters followed by rapid washing three times with 4 ml of ice-cold Tris buffer. Filters are added to scintillation vials with 8 ml Formula 947 (New England Nuclear), left overnight, shaken, and the radioactivity counted in a scintillation counter (efficiency 40%). Nonspecific binding, defined as binding of ^3 H-LTD4 in the presence of 100 nM LTC4, is 300-500 cpm for all lots of ^3 H-LTD4. Binding to the filters in the absence of tissue is about 100 cpm, and is not affected by unlabeled LTC4. Specific binding, defined as total binding minus nonspecific binding, varied considerably from lot to lot of ^3 H-LTD4. […]

Row | Compound | IC50
1 | O=C(Nc1ccc(CCc2ccc(O)cc2O)cc1)C1=C(O)c2ccccc2S(=O)(=O)C1 [Example 31, N-[4-[2-(2,4-Dihydroxyphenyl)ethyl]phenyl]-4-hydroxy-2H-1-benzothiopyran-3-carboxamide, 1,1-dioxide] | 5.2e-05 M
2 | O=C(Nc1ccc(CCc2cccc(O)c2O)cc1)C1CS(=O)(=O)c2ccccc2C1=O (centres unmarked) [Example 29, N-[4-[2-(2,3-Dihydroxyphenyl)ethyl]phenyl]-3,4-dihydro-4-oxo-2H-1-benzothiopyran-3-carboxamide, 1,1-dioxide] | 3.92e-05 M
3 | COc1cc(CCc2ccc(NC(=O)C3=C(O)c4ccccc4S(=O)(=O)C3)cc2)cc(OC)c1OC [Example 35] | 4.23e-05 M
4 | O=C(Nc1ccc(CCc2cc(C(F)(F)F)cc(C(F)(F)F)c2)cc1)c1sc2ccccc2c1O [Example 148, Benzo[b]thiophene-2-carboxamide, N-[4-[2-[3,5-bis(trifluoromethyl)phenyl]ethyl]phenyl]-3-hydroxy] | 0.0001 M
5 | O=C(Nc1ccc(CCc2cc(C(F)(F)F)cc(C(F)(F)F)c2)cc1)C1=C(O)c2ccccc2S(=O)(=O)C1 [Example 63, N-[4-[2-[3,5-bis-Trifluoromethyl(phenyl)]ethyl]phenyl]-4-hydroxy-2H-1-benzothiopyran-3-carboxamide, 1,1-dioxide] | 4.42e-06 M and 3.11e-06 M
6 | O=C(Nc1ccc(CCc2cccc(C(F)(F)F)c2)cc1)C1=C(O)c2ccccc2S(=O)(=O)C1 [Example 62, N-[4-[2-(3-Trifluoromethylphenyl)ethyl]phenyl]-4-hydroxy-2H-1-benzothiopyran-3-carboxamide, 1,1-dioxide] | 1e-05 M and 5.95e-06 M and 4.98e-06 M
7 | O=C(Nc1ccc(CCc2ccc(Cl)c(Cl)c2)cc1)c1sc2ccccc2c1O [Example 144] | 5e-06 M and 6.43e-06 M and 3.28e-06 M
8 | COc1cccc(CCc2ccc(NC(=O)C3=C(O)c4ccccc4S(=O)(=O)C3)cc2)c1OC [Example 28, N-[4-[2-(2,3-Dimethoxyphenyl)ethyl]phenyl]-4-hydroxy-2H-1-benzothiopyran-3-carboxamide, 1,1-dioxide] | 5e-05 M and 3.56e-05 M

Continued by falling IC50, values first:

Row | IC50 | Compound
9 | 3.15e-05 M | Nc1ccc(C=Cc2ccc(NC(=O)C3CS(=O)(=O)c4ccccc4C3=O)cc2)cc1 (centres unmarked) [Example 66, 2H-1-Benzothiopyran-3-carboxamide, N-[4-[2-(4-aminophenyl)ethenyl]phenyl]-3,4-dihydro-4-oxo-, 1,1-dioxide]
10 | 2.35e-05 M | COc1ccc(OC)c(CCc2ccc(NC(=O)C3=C(O)c4ccccc4S(=O)(=O)C3)cc2)c1 [Example 32, N-[4-[2-(2,5-Dimethoxyphenyl)ethyl]phenyl]-4-hydroxy-2H-1-benzothiopyran-3-carboxamide, 1,1-dioxide]
11 | 2.26e-05 M | COc1ccc(CCc2ccc(NC(=O)C3=C(O)c4ccccc4S(=O)(=O)C3)cc2)c(OC)c1 [Example 30, N-[4-[2-(2,4-Dimethoxyphenyl)ethyl]phenyl]-4-hydroxy-2H-1-benzothiopyran-3-carboxamide, 1,1-dioxide]
12 | 2.04e-05 M | O=C(Nc1ccc(CCc2ccc(Cl)c(Cl)c2)cc1)C(=O)C1=C(O)c2ccccc2S(=O)(=O)C1 [Example 69, 2H-1-Benzothiopyran-3-acetamide, N-[4-[2-(3,4-dichlorophenyl)ethyl]phenyl]-4-hydroxy-α-oxo-, 1,1-dioxide]
13 | 1.58e-05 M | COc1cc(CCc2ccc(NC(=O)C3=C(O)c4ccccc4S(=O)(=O)C3)cc2)cc(OC)c1 [Example 34, N-[4-[2-(3,5-Dimethoxyphenyl)ethyl]phenyl]-4-hydroxy-2H-1-benzothiopyran-3-carboxamide, 1,1-dioxide]
14 | 5.96e-06 M | CC(C)(C)c1cc(CCc2ccc(NC(=O)C3=C(O)c4ccccc4S(=O)(=O)C3)cc2)cc(C(C)(C)C)c1O [Example 77, 2H-1-Benzothiopyran-3-carboxamide, N-[4-[2-[3,5-bis(1,1-dimethylethyl)-4-hydroxyphenyl]ethyl]phenyl]-4-hydroxy-, 1,1-dioxide]
15 | 5.58e-06 M | O=C(Nc1ccc(CCc2ccc(Oc3ccccc3)cc2)cc1)C1=C(O)c2ccccc2S(=O)(=O)C1 [Example 75, 2H-1-Benzothiopyran-3-carboxamide, 4-hydroxy-N-[4-[2-(4-phenoxyphenyl)ethyl]phenyl]-, 1,1-dioxide]
16 | 4.99e-06 M | O=C(Nc1ccc(CCc2cccc(Cl)c2)cc1)C1=C(O)c2ccccc2S(=O)(=O)C1 [Example 68, 2H-1-Benzothiopyran-3-carboxamide, N-[4-[2-(3-chlorophenyl)ethyl]phenyl]-4-hydroxy-, 1,1-dioxide]
17 | 4.4e-06 M | COc1ccc(CCc2ccc(NC(=O)C(=O)c3sc4ccccc4c3O)cc2)cc1OC [Example 131, N-[4-[2-(3,4-Dimethoxyphenyl)ethyl]phenyl]-3-hydroxy-α-oxo-benzo[b]thiophene-2-acetamide]

From patent US4868195A, “Novel enolamides, pharmaceutical compositions and methods of use thereof for activity as modulators of the arachidonic acid cascade” (Warner-Lambert Company, priority 1988, dated 1989)
